The results in this text go back to ChEMBL document CHEMBL3988442, “University of Dundee, Small-Polar-MMV Screening Library” (2021).

This assay concerns the target Tryptophan--tRNA ligase (Mycobacterium tuberculosis (strain ATCC 25618 / H37Rv), UniProt P9WFT3). The experiment in a line: Biochemical assay for Mt-TrpRS. It is filed as functional.

Each structure is given as a SMILES string. Some results are limits rather than exact numbers.

Chain of Tryptophan--tRNA ligase (P9WFT3 whole entry): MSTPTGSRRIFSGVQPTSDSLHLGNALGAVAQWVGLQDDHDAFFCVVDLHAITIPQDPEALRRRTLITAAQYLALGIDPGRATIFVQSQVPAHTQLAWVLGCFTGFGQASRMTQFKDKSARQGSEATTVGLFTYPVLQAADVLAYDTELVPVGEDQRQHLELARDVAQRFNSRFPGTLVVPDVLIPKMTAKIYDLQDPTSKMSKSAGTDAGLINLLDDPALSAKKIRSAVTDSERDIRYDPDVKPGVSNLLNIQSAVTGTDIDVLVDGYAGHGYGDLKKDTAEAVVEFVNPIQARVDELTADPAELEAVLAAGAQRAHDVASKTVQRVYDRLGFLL

Take `CNC(=O)C1(CCCc2ccncc2)CCN1` (stereo not given): the concentration for half-maximal inhibition (IC50) was over 195 µM.
For `CS(=O)(=O)N1CCCC(Cc2cncc(Br)c2)CC1` (stereo not given), the IC50 is over 195 µM.
Turning to `Cc1nn(C)cc1C(=O)N1CCC(CSc2ccccc2)C1` (stereo not given), the IC50 was over 195 µM.
`CN(C)CC1(O)CCN(S(=O)(=O)c2cccc(F)c2)C1` (stereo not given) showed an IC50 of over 195 µM.
The result for `COc1ccccc1C1(C(=O)NCCN2CCCCC2)CCOCC1` reads over 195 µM; that for `Fc1ccc2c(c1)C1(CCNCC1)CC2NC1CC1` (stereo not given), over 195 µM.
In the case of `C[S+]([O-])CCNC(=O)Nc1cc(F)ccc1-n1cccn1` (stereo not given), the IC50 was over 195 µM.
As for `CC(C)N1CCCC2(CCN(Cc3noc(C4CCCC4)n3)C2)C1=O` (stereo not given), the IC50 was over 195 µM.
The result for `O=C(NCC1CC2(CO1)CN(c1ncccn1)C2)C1CCC1` (stereo not given) reads over 195 µM; that for `CS(=O)(=O)NCc1cn2c(n1)CN(Cc1cccnc1)CC2`, over 195 µM.
In turn, `Cc1c(C(=O)N2CCC(O)(CN(C)C)C2)c2ccccc2n1C` (stereo not given) showed an IC50 of over 195 µM.
`COCC1CC2(CCN(C(=O)c3cncc(C)c3)CC2)CO1` (stereo not given) had an IC50 of over 195 µM.
Take `OCCN1CCCCC1c1cc[nH]n1` (stereo not given): the IC50 is over 195 µM.
As to `c1ccc(CO[C@@H]2CN(Cc3ccoc3)[C@@H]3COC[C@@H]32)nc1`, the IC50 was over 195 µM.
Compound `COCCN1CCc2ncnc(NC3CC3)c2CC1` had an IC50 of over 195 µM.
In the case of `CNC(=O)c1cc(C2CCCNC2)n[nH]1` (stereo not given), the half-inhibitory concentration (IC50) was over 195 µM.
`CCn1cnnc1CNC(=O)NC(c1cccs1)C1CCCC1` (stereo not given) gave an IC50 of over 195 µM.
As for `Cc1ccc(S(=O)(=O)Nc2ccc(=O)n(C)c2)c(Br)c1`, the figure is over 195 µM.
In turn, `CN(C)CC(=O)N1C[C@@H]2CC[C@H](Oc3ccccc3)[C@@H]2C1` showed an IC50 of over 195 µM.
Consider `COc1cccc(F)c1CN1CCC(c2nc(C)cc(C)n2)C1` (stereo not given), for which the IC50 is over 195 µM.
With `O=C(NCc1cncc2c1CCN(CC1CCOC1)C2)c1ccco1` (stereo not given), the IC50 is over 195 µM.
The compound `COc1ccc(CN2C[C@@H](O)[C@](O)(CNC(=O)c3ccccn3)C2)cc1` gave an IC50 of over 195 µM.
`Cc1ccc2cc(CNCCN3CCCC3)c(=O)[nH]c2c1` gave an IC50 of over 195 µM.
The compound `O=C1CN(CC2CC2)Cc2nc(NCCc3ccccn3)sc21` gave an IC50 of over 195 µM.
For the compound `CN1CCCC(CCCc2cccnc2)(C(N)=O)C1` (stereo not given), the IC50 is over 195 µM.
As for `CC(C)OCc1nn(C)c2c1CN(Cc1cccs1)CC2`, the figure is over 195 µM.
`Cn1cc(CN2CC[C@H](O)[C@@H](n3ccc(=O)[nH]c3=O)CC2)cn1` gave an IC50 of over 195 µM.
In turn, `CN(C)C(=O)CN1CCOCC2(C1)CN(c1ncccn1)CCO2` (stereo not given) had an IC50 of over 195 µM.
`O=C(C1CCOC1)N1C[C@@H]2CCN(C(=O)c3cscn3)[C@@H]2C1` (stereo not given in full) gave an IC50 of over 195 µM.
With `CN(C)c1cncc(C2CCN(CC(N)=O)CC2)n1`, the IC50 is over 195 µM.
`NC(=O)Nc1cc(F)ccc1SCC(F)F`: the IC50 is over 195 µM.
As for `Fc1ccc(Cc2cnc(C3CCCN3)cn2)cc1` (stereo not given), the figure is over 195 µM; as for `Cn1nccc1CCC(=O)N1CCCC(Cc2cccnc2)C1` (stereo not given), over 195 µM.
`Cn1c(=O)c2cc(C(=O)NCCOCC(F)(F)F)ccc2n(C)c1=O` gave an IC50 of over 195 µM.
In turn, `CCC(CC#N)n1ccc(C(F)(F)F)n1` (stereo not given) showed an IC50 of over 195 µM.
The result for `CC(=O)N1N=C(c2ccccc2)OC1C(=O)NCCc1cccc(F)c1` (stereo not given) reads over 195 µM.
For the compound `Nc1nccnc1C1CN(C(=O)c2ccnnc2)CCO1` (stereo not given), the half-inhibitory concentration (IC50) is over 195 µM.
On to `Cc1cnn(CC2CCCN2Cc2nnc(C(C)C)o2)c1` (stereo not given), for which the IC50 is over 195 µM.
As for `CC(C)N(C)CC(=O)N(C)C(c1cccc(F)c1)c1ccccn1` (stereo not given), the IC50 was over 195 µM.
The result for `COCC(=O)N1CCCCC1c1nccc(C)n1` (stereo not given) reads over 195 µM; that for `Cc1cccc(NCc2nc(C)ccc2O)c1`, 81.8 µM; that for `Cc1cnc(N)c(C(=O)C2CCN(C(=O)c3cnc(C)cn3)CC2)c1`, over 195 µM.
Compound `O=C1CCCN1CCCC(=O)N1CCCC(Cc2cccnc2)C1` (stereo not given) had an IC50 of over 195 µM.
The result for `c1cn(-c2cnc(C3CCCNC3)cn2)cn1` (stereo not given) reads over 195 µM; that for `O=C(CCC1CCCC1)N1CCCC(c2ncc3c(n2)CCNC3)C1` (stereo not given), over 195 µM.
Take `O=C(NC1CC1)[C@@H]1C[C@@H]2CCN(Cc3ccoc3)C[C@@H]2O1`: the half-maximal inhibitory concentration (IC50) is over 195 µM.
For `CNc1nccnc1C1CCN(C(C)C)CC1`, the IC50 is over 195 µM.
The result for `O=C([C@H]1COC[C@H]2CN(c3ccncn3)C[C@H]21)N1CCCC1` reads over 195 µM; that for `COCCN1CC(C(=O)N(C)Cc2ccc(Cl)s2)CC1=O` (stereo not given), over 195 µM.
Compound `Cc1ccc(C(=O)NS(=O)(=O)c2ccccc2F)c(=O)[nH]1` showed an IC50 of over 195 µM.
With `COc1ccc([C@@H]2CN(C(=O)CCn3cccn3)C[C@H]2NC(C)=O)cc1`, the IC50 is over 195 µM.
Consider `O=C(c1ccccn1)N1CCC(c2nc(O)cc(-c3ccncc3)n2)C1` (stereo not given), for which the IC50 was over 195 µM.
Compound `Cc1cc(N2CCC(c3n[nH]c4nccnc34)C2)ncn1` (stereo not given) showed an IC50 of over 195 µM.
Turning to `O=C1CCC(=O)N1c1nn(Cc2ccccc2)cc1Cl`, the IC50 was over 195 µM.
`COCCN1CCC12CCN(C(=O)c1ccc(C)nc1)C2` (stereo not given): the IC50 was over 195 µM.
The result for `CN1CCC(c2cncc(-c3cccc(Cl)c3)n2)CC1` reads over 195 µM.
The result for `CN(C)C(=O)CN1CCO[C@H]2CN(Cc3ccoc3)C[C@H]21` reads over 195 µM; that for `Cc1cc(CN(C)CCC(O)c2ccccc2)no1` (stereo not given), over 195 µM; that for `CNc1cc(-c2ccncc2)ncn1`, over 195 µM.
Compound `c1ccc(CO[C@H]2C[C@@H]3CN(Cc4cccnc4)C[C@@H]3C2)cc1` had an IC50 of over 195 µM.
`CS(=O)(=O)c1snnc1C1CCN(Cc2cccnc2)CC1` showed an IC50 of over 195 µM.
In turn, `Cn1ccc(C(=O)N2CCC(Cc3cnc4[nH]ccc4c3)C2)n1` (stereo not given) had an IC50 of over 195 µM.
In the case of `COCCc1ncc(CNC2(c3ccc(Cl)cc3Cl)CC2)cn1`, the IC50 was over 195 µM.
In turn, `O=C(O)C1(Cc2cc(-c3ccc(F)cc3)no2)CCOCC1` showed an IC50 of over 195 µM.
As for `CC(=O)N1CCc2nc(-c3ccc(F)cc3)nc(NC(C)C)c2CC1`, the IC50 is over 195 µM.
As for `Cc1cccc(C2CCCN2S(=O)(=O)N(C)C)n1` (stereo not given), the figure is over 195 µM; as for `Cn1ncc(NC(=O)c2noc3c2CCCC3)c1C(N)=O`, over 195 µM; as for `COC1CN(C(=O)CC2CCCC2)CCC(=O)N(C)c2ccccc21` (stereo not given), over 195 µM.
In turn, `Cn1nc(C#N)c2c1CN(C(=O)c1ccco1)CCC2` had an IC50 of over 195 µM.
As to `Cn1nccc1CN1CCCC(COc2ccccc2F)C1` (stereo not given), the half-inhibitory concentration (IC50) is over 195 µM.
In the case of `Cc1ccc(F)cc1-c1ccc(N)nc1`, the half-maximal inhibitory concentration (IC50) was over 195 µM.
As for `Nc1cnc(-c2ccc(F)cc2Cl)cn1`, the figure is over 195 µM.
As to `COc1cccc(OC)c1CN1CC(O)CN(S(C)(=O)=O)CC1=O` (stereo not given), the half-inhibitory concentration (IC50) was over 195 µM.
As for `NC(=O)CN1CCC(c2noc3cc(F)ccc23)CC1`, the IC50 was over 195 µM.
In turn, `O=C(Cc1cccc(O)c1)N1CCCC(O)(CN2CCCC2)CC1` (stereo not given) showed an IC50 of over 195 µM.
In turn, `Cn1c(C(=O)NCC2(N)CCCC2)cc2ccccc21` showed an IC50 of over 195 µM.
In turn, `COCCN1C(=O)CO[C@H]2CN(Cc3ccccc3Cl)C[C@@H]21` had a 50% inhibitory concentration (IC50) of over 195 µM.
For `COc1ccccc1CC(=O)N1CC[C@H](O)[C@]2(CCCO2)C1`, the IC50 was over 195 µM.
Regarding `N#Cc1ccc(CN2CCCCC2Cn2cccn2)cc1` (stereo not given), the IC50 is over 195 µM.
The compound `Cc1ccc(S(=O)(=O)N2C[C@H]3C[C@H](NC(=O)c4cc[nH]n4)[C@H]3C2)cc1` showed a half-maximal inhibitory concentration (IC50) of over 195 µM.
The compound `Cc1nc(Cn2c3c(ccc2=O)CC(NC(N)=O)CC3)cs1` (stereo not given) gave an IC50 of over 195 µM.
In turn, `O=C(NCC1CC2(CO1)CN(Cc1cccs1)C2)C1CCC1` (stereo not given) showed an IC50 of over 195 µM.
As for `Cc1nccc(N2CCCC2CCNS(C)(=O)=O)n1` (stereo not given), the half-inhibitory concentration (IC50) was over 195 µM.
For the compound `CN1CCCN(C(=O)c2ccnn2-c2ccc3ccccn23)CC1`, the IC50 is over 195 µM.
In turn, `CC(=O)c1cc2ncc(C(=O)NC3CC3)cc2[nH]1` gave an IC50 of over 195 µM.
Take `CNC(=O)c1cnc2c(C)csc2c1`: the IC50 is over 195 µM.
For the compound `COCc1cc(O)nc(C2CCCN(Cc3cccc(Cl)c3Cl)C2)n1` (stereo not given), the IC50 is over 195 µM.
As for `Cc1nc(C(=O)NCc2ccccn2)cc(C2CCCN2)n1` (stereo not given), the figure is over 195 µM; as for `c1ccc(N2CCOC(Cc3cccnc3)C2)cc1` (stereo not given), over 195 µM; as for `CN(CC1(O)CCN(c2ccccn2)C1)C(=O)Cc1ccsc1` (stereo not given), over 195 µM.
`CC(=O)N1CCC(Cc2cnc(C(=O)N3CCCC3)cn2)C1` (stereo not given): the IC50 was over 195 µM.
As for `CN1CCC(c2cccc(Cc3ccccc3)n2)CC1`, the figure is over 195 µM; as for `CCN(C(=O)c1nc2c(s1)CCCN2C)C(C)C`, over 195 µM.
In turn, `COCCn1c2c(ccc1=O)CC(NCc1cnn(C)c1)CC2` (stereo not given) had an IC50 of over 195 µM.
`Cn1cnnc1C1CCN(C(=O)CCOc2ccc(Cl)cc2)CC1` showed an IC50 of over 195 µM.
In turn, `COc1cccc(CNCc2cccnc2)c1` gave an IC50 of over 195 µM.
As for `NCCC(=O)Nc1ccc(-c2ccccc2)cc1`, the figure is over 195 µM.
In turn, `CC(=O)c1ccc(OCC(C)O)cc1O` (stereo not given) gave an IC50 of over 195 µM.
As for `Cc1cnccc1-c1cnn(CCNC(=O)c2ccncc2)c1C1CC1`, the figure is over 195 µM; as for `CN(C)C(=O)NCC1CC2(CO1)CN(c1nncs1)C2` (stereo not given), over 195 µM.
In turn, `CC(C)N(C)Cc1cncc2c1CCN(CC(=O)N(C)C)C2` showed an IC50 of over 195 µM.
As for `CCO[C@H]1CC[C@H]2[C@H]1OCCN2C(=O)COc1ccccc1`, the figure is over 195 µM; as for `NCc1cnn(-c2ccccc2C(=O)NCCc2ccccn2)c1`, over 195 µM.
As for `O=C1CCC(=O)N1c1nn(Cc2cccc(F)c2)cc1Cl`, the IC50 is over 195 µM.
On to `CO[C@H]1CN(c2ccccc2)S(=O)(=O)[C@@]12CCN(Cc1ccccc1)C2`, for which the IC50 is over 195 µM.
Turning to `CCc1ccc(C(=O)N2CCN(CC(O)CC)CC2)o1` (stereo not given), the IC50 is over 195 µM.
As for `Cc1c[nH]nc1C1CCN(S(=O)(=O)N(C)C)C1` (stereo not given), the figure is over 195 µM.
Take `Cc1nc(O)cc(C2CCN(Cc3ccc(F)c(F)c3)C2)n1` (stereo not given): the half-inhibitory concentration (IC50) was over 195 µM.
`CN(Cc1ccc(F)cc1)CC1(O)CCN(C(=O)c2ccncc2)C1` (stereo not given) had an IC50 of over 195 µM.
In turn, `CC(C)NC(=O)c1nc2c(s1)CCCN2C(C)C` gave an IC50 of over 195 µM.
